Test systems include Acinetobacter baumannii; Enterococcus faecium; Klebsiella pneumoniae; Pseudomonas aeruginosa; Streptococcus pneumoniae; Bacillus subtilis; Escherichia coli; Proteus vulgaris; Salmonella typhimurium; Streptococcus pyogenes.
Experiment in all cases: ≥ marks a high value that may be exact or a test limit, other limits are often not marked, values filed in µg/mL are converted to µM
Assay [1] concerns Staphylococcus aureus ATCC BAA-1556.
The subject of assay [2] is Candida albicans NCYC 1467.
For assay [3], the system named is Enterococcus faecalis NCTC 12697.
The test system of assay [4] is Escherichia coli NCTC 10418.
Assay [5] has as its system Klebsiella pneumoniae ATCC 43816.
Assay [6] has as its system Pseudomonas aeruginosa ATCC 27853.
The test system of assay [7] is Staphylococcus aureus NCTC 10788.
Assay [8] has as its system Staphylococcus aureus NCTC 12493.
The subject of assay [9] is Escherichia coli ATCC 25922.
In assay [10] the test system is Klebsiella pneumoniae ATCC 700603.
Assay [11] concerns Staphylococcus aureus ATCC 29213.
Assay [12] has as its system Staphylococcus aureus ATCC 33591.
Assay [13] concerns Staphylococcus aureus ATCC 700699.
In assay [14] the test system is Staphylococcus aureus ATCC 43300.
Assay [15] concerns Staphylococcus epidermidis.
For assay [16], the system named is Bacillus cereus ATCC 11778.
In assay [17] the test system is Klebsiella aerogenes ATCC 13048.
The subject of assay [18] is Salmonella enterica subsp. enterica serovar Typhimurium ATCC 14028.
The test system of assay [19] is Staphylococcus aureus SAP 0017.

SMILES strings stand for the structures. ≈ marks a conversion by molar mass, not a printed value. Where “and” joins values, the source holds several entries; their conditions need not be identical. Equal entries are not always repeated.

This note sets out measurements from DBAASP.

In assay [1], `CC[C@H](C)[C@H](NC(=O)[C@H](Cc1c[nH]c2ccccc12)NC(=O)[C@H](CCCN=C(N)N)NC(=O)[C@@H](N)CCCN=C(N)N)C(=O)N[C@@H](CCCN=C(N)N)C(=O)N[C@@H](Cc1c[nH]c2ccccc12)C(=O)N[C@@H](CC(C)C)C(N)=O` [RRWIRWL] registered an MIC of no less than 100 µM.
As for `CC[C@H](C)[C@H](NC(=O)[C@H](C)NC(=O)[C@H](CO)NC(=O)[C@@H](NC(=O)[C@@H](NC(=O)[C@H](CCCCN)NC(=O)[C@@H]1CCCN1C(=O)[C@@H](NC(=O)[C@H](CC(C)C)NC(=O)[C@H](CO)NC(=O)[C@H](CC(C)C)NC(=O)[C@@H](N)Cc1ccccc1)[C@@H](C)CC)[C@@H](C)CC)[C@@H](C)CC)C(=O)N[C@@H](CO)C(=O)N[C@@H](C)C(=O)N[C@@H](CC(C)C)C(=O)N[C@H](C(=O)N[C@@H](CCCCN)C(=O)N[C@@H](Cc1cnc[nH]1)C(=O)N[C@@H](Cc1ccccc1)C(N)=O)[C@@H](C)CC` [FLSLIPKIISAISALIKHF], the MIC in [2] was no less than 32 µM; in assay [3], 16 µM (≈ 33.8 µg/mL); in assay [4], no less than 512 µM; in [5] it was no less than 512 µM; in assay [6], greater than 512 µM; in assay [7], 2 µM (≈ 4.22 µg/mL). The compound further had an MIC in assay [8] of no less than 64 µM.
`CC(C)C[C@H](NC(=O)[C@H](CC(C)C)NC(=O)[C@H](CCCCN)NC(=O)[C@H](CC(C)C)NC(=O)[C@H](CC(C)C)NC(=O)[C@H](CC(C)C)NC(=O)[C@@H](N)CCCCN)C(N)=O` [KLLLKLL] returned an MIC in assay [1] of no less than 100 µM.
In the case of `CC[C@H](C)[C@H](NC(=O)[C@H](CC(=O)O)NC(=O)[C@@H](NC(=O)[C@@H](NC(=O)CN)C(C)C)C(C)C)C(=O)N[C@@H](CC(C)C)C(=O)N[C@@H](CCCCN)C(=O)NCC(=O)N[C@@H](C)C(=O)N[C@@H](C)C(=O)N[C@@H](CCCCN)C(=O)N[C@@H](CC(=O)O)C(=O)N[C@@H](C)C(=O)N[C@@H](C)C(=O)NCC(=O)N[C@@H](Cc1cnc[nH]1)C(=O)N[C@@H](CC(C)C)C(=O)N[C@@H](C)C(=O)N[C@@H](CO)C(=O)N[C@@H](CCCCN)C(=O)N[C@H](C(=O)N[C@@H](CCSC)C(=O)N[C@@H](CC(N)=O)C(=O)N[C@@H](CCCCN)C(=O)N[C@@H](CC(C)C)C(N)=O)C(C)C` [GVVDILKGAAKDAAGHLASKVMNKL], the MIC in [9] is greater than 100 µM; in [10], greater than 100 µM; in assay [6] it was greater than 100 µM; in assay [11], greater than 100 µM; in assay [12], no less than 100 µM; in assay [13] it was no less than 100 µM.
For `CC[C@H](C)[C@H](NC(=O)CNC(=O)[C@H](Cc1cnc[nH]1)NC(=O)CNC(=O)CN)C(=O)N[C@@H](CCCN=C(N)N)C(=O)N[C@@H](CCCN=C(N)N)C(=O)N[C@H](C(=O)N[C@H](C(=O)N[C@@H](CCCN=C(N)N)C(=O)N[C@@H](CCCCN)C(=O)N[C@H](C(=O)N[C@H](C(=O)N[C@@H](Cc1cnc[nH]1)C(=O)N[C@H](C(=O)N[C@H](C(=O)N[C@@H](CCCCN)C(=O)N[C@@H](CCCCN)C(=O)NCC(=O)NCC(=O)N[C@@H](CS)C(N)=O)[C@@H](C)CC)[C@@H](C)CC)[C@@H](C)CC)[C@@H](C)CC)[C@@H](C)CC)[C@@H](C)CC` [GGHGIRRIIRKIIHIIKKGGC], the MIC against Acinetobacter baumannii was 9.3 µM (≈ 21.6 µg/mL); in the assay on Enterococcus faecium, 8 µM (≈ 18.6 µg/mL); in assay [9] it was 3 µM (≈ 6.97 µg/mL); against Klebsiella pneumoniae, greater than 16 µM; against Pseudomonas aeruginosa it was 12 µM (≈ 27.9 µg/mL); in assay [14], 4 µM (≈ 9.3 µg/mL). Further, the MIC against Streptococcus pneumoniae is 8 µM (≈ 18.6 µg/mL).
On to `CC(C)C[C@H](NC(=O)[C@H](CCCN=C(N)N)NC(=O)[C@@H]1CCCN1C(=O)[C@H](Cc1cnc[nH]1)NC(=O)[C@@H]1CCCN1C(=O)[C@@H]1CCCN1C(=O)[C@H](CCCN=C(N)N)NC(=O)[C@@H]1CCCN1C(=O)[C@@H]1CCCN1C(=O)[C@H](Cc1cnc[nH]1)NC(=O)[C@@H]1CCCN1C(=O)[C@@H]1CCCN1C(=O)[C@H](CCCN=C(N)N)NC(=O)[C@@H]1CCCN1)C(=O)O` [PRPPHPPRPPHPRL], for which the MIC in the assay with Bacillus subtilis is no less than 64 µM; against Escherichia coli it was 8 µM (≈ 13.2 µg/mL); with Proteus vulgaris, no less than 64 µM; with Pseudomonas aeruginosa, 64 µM (≈ 106 µg/mL); against Salmonella typhimurium, 0.5 µM (≈ 0.825 µg/mL); in [15], no less than 64 µM. The MIC against Streptococcus pyogenes is no less than 64 µM.
Regarding `CC(C)C[C@H](NC(=O)[C@H](CC(C)C)NC(=O)[C@H](CC(C)C)NC(=O)[C@H](CCCCN)NC(=O)[C@H](CC(C)C)NC(=O)[C@@H](N)CC(C)C)C(=O)N[C@@H](CCCCN)C(N)=O` [LLKLLLK], in assay [1], the MIC is no less than 100 µM.
With `CC[C@H](C)[C@H](N)C(=O)N[C@@H](CC(C)C)C(=O)NCC(=O)N[C@@H](CCCCN)C(=O)N[C@@H](C)C(=O)N[C@@H](Cc1c[nH]c2ccccc12)C(=O)N[C@@H](CCC(=O)O)C(=O)NCC(=O)N[C@@H](C)C(=O)N[C@@H](CCCCN)C(=O)N[C@@H](CO)C(=O)N[C@@H](CC(C)C)C(=O)N[C@@H](Cc1ccccc1)C(N)=O` [ILGKAWEGAKSLF], the MIC in assay [16] was no less than 70.4 µM; in [9], greater than 70.4 µM; in assay [17], no less than 70.4 µM; in assay [18] it was greater than 70.4 µM; in assay [11] it was greater than 70.4 µM.
On to `CC[C@H](C)[C@H](NC(=O)[C@H](CC(=O)O)NC(=O)[C@H](C)NC(=O)[C@H](C)NC(=O)[C@H](C)NC(=O)CNC(=O)[C@H](CCCCN)NC(=O)[C@H](CC(C)C)NC(=O)[C@@H](NC(=O)[C@H](CC(=O)O)NC(=O)[C@@H](NC(=O)[C@@H](NC(=O)CN)C(C)C)C(C)C)[C@@H](C)CC)C(=O)N[C@@H](C)C(=O)NCC(=O)N[C@@H](Cc1cnc[nH]1)C(=O)N[C@@H](CC(C)C)C(=O)N[C@@H](C)C(=O)N[C@@H](CO)C(=O)N[C@@H](CCCCN)C(=O)N[C@H](C(=O)N[C@@H](CCSC)C(=O)N[C@@H](CC(N)=O)C(=O)N[C@@H](CCCCN)C(=O)N[C@@H](CC(C)C)C(N)=O)C(C)C` [GVVDILKGAAADIAGHLASKVMNKL], for which the MIC in [9] was 100 µM (≈ 249 µg/mL); in [10], greater than 100 µM; in [6] it was greater than 100 µM; in [11], greater than 100 µM; in assay [12] it was no less than 100 µM; in [13], no less than 100 µM.
`CC(C)C[C@H](NC(=O)[C@H](CC(C)C)NC(=O)[C@H](CC(C)C)NC(=O)[C@H](CCCCN)NC(=O)[C@H](CC(C)C)NC(=O)[C@H](CCCCN)NC(=O)[C@H](CC(C)C)NC(=O)[C@H](CC(C)C)NC(=O)[C@@H](N)CC(C)C)C(N)=O` [LLLKLKLLL] returned an MIC in [1] of no less than 100 µM.
Regarding `CC[C@H](C)[C@H](N)C(=O)N[C@@H](CC(C)C)C(=O)N[C@H](C(=O)N[C@@H](CCCN=C(N)N)C(=O)N[C@@H](Cc1c[nH]c2ccccc12)C(=O)N[C@H](C(=O)N[C@@H](CCCN=C(N)N)C(=O)N[C@@H](Cc1c[nH]c2ccccc12)C(=O)N[C@@H](CCCN=C(N)N)C(=O)N[C@H](C(=O)N[C@@H](CCC(N)=O)C(=O)N[C@@H](Cc1c[nH]c2ccccc12)C(N)=O)[C@@H](C)CC)[C@@H](C)CC)C(C)C` [ILVRWIRWRIQW], the minimal inhibitory concentration (MIC) in assay [19] was 2 µM and 4 µM.

Broadly, the MIC is the smallest concentration in the dilution series that meets the test's criterion for growth inhibition. The low end stands for inhibition by little substance, the high end for a need for much substance.
